Legend:
CHO-K cells = experiment: Peptide internalization in vitro, confocal imaging, CHO-K cells; type: cell-based, Chinese hamster; details: FAM-labeled peptide 20 μM, 3 h, 37°C, confocal fluorescence imaging, representative of three experiments
Method: Figure 1. Microdialysis-captured peptides penetrate the cell membrane. […] CHO-K cells were grown on chamber slides. […] The scale bar is 20 μm. Images are representative of three individual experiments.
Plain growth medium was used as a negative control.

skin wounds = experiment: Homing of systemically administered FAM-peptides to mouse skin excision wounds and normal organs (anti-FAM staining, QuPath); type: in vivo, mouse (BALB/cJRj); details: for localisation in skin wound / accumulation in normal organs: tail vein, 150 min; for localisation in skin wound: anti-FAM and anti-CD31 staining; for accumulation in normal organs: normal skin, heart, liver, lung, spleen, kidney, anti-FAM staining
Method: We next studied homing of systemically administered CDD, CPK, and CYH peptides in mouse skin excision wounds at the peak of neovascularization, 7 d after wounding. The peptides were injected into the tail vein and allowed to circulate for 2.5 h. The systemically administered peptides were detected in the granulation tissue of the wounds outside of the blood vessels (Figs 2 and S4). […] In contrast, the peptides were undetectable in normal skin (Fig S5A), heart, liver, lung, and spleen (Fig S5B), except for strong signal related to peptide secretion from the kidney glomeruli (Fig S5B).
Figure 2. Microdialysis-captured peptides home to skin wounds and localize in granulation tissue. […] Six-mm-diameter full-thickness wounds were cut in the back skin of 8-wk-old male mice. After 7 d, the peptides or PBS was injected systemically (tail vein). The peptides were allowed to circulate for 150 min before the vasculature was thoroughly perfused. The wound tissue was fixed, and microscopic sections were stained with anti-FAM and hematoxylin. (A, B) Magnifications of areas marked in panel (A) are represented in panel (B) with adjacent sections stained with anti-CD31 to visualize the blood vessels. The scale bar is 500 μm for panel (A) and 125 μm for panel (B). Images are representative of two separate experiments, four mice in each peptide group.
Figure 3. Microdialysis-captured peptides home to skin wounds and penetrate blood–retina barrier in retinopathy. Systemically administered homing peptides CDD, CPK, and CYH accumulate in skin wounds and penetrate blood–retina barrier in retinopathy. Full-thickness wounds, 6 mm in diameter, in the back skin of 8-wk-old male mice were used. After 7 d, each peptide or PBS was injected into the tail vein. For retinopathy experiments, oxygen-induced retinopathy (OIR) was induced by placing mouse pups at day P7 in a hyperoxia chamber for 5 d. On P17, when the angiogenesis peaks in this OIR model, the peptides were injected into the tail vein. The peptides circulated for 150 min (wounds) and 120 min (OIR) before the vasculature was thoroughly perfused. The skin wounds and eyeballs were fixed, and histological samples stained with anti-FAM and hematoxylin. Peptide homing was quantified with the automated image analysis system. (A) Microdialysis-identified peptides home to skin wounds. […] (D) All three microdialysis-identified peptides also accumulate substantially in the vitreous in the OIR model. *P < 0.05, **P < 0.01, ***< 0.001. Each datapoint represents an individual wound, retina, or vitreous. N = 3 for skin wound, and N = 6 and N = 8 for normal and OIR retinas.
Male BALB/cJRj and diabetic male BKS(D)-Lepr^db/JOrlRj mice were used for the peptide homing experiment. The BALB/cJRj mice were 8 wk old and weighed 24–28 g. The BKS(D)-Lepr^db/JOrlRj mice were 14 wk old and weighed 45–58 g, and their blood sugar levels were over 33 mmol/liter. Four full-thickness circular wounds were created on a shaved and disinfected skin with a 6-mm-diameter biopsy punch and scissors under isoflurane anesthesia (Attane vet 1,000 mg/g; Piramal Critical Care B.V.) and buprenorphine analgesia (0.15 mg/kg; Vetergesic vet 0.3 mg/ml; Ceva Santé Animal). Seven days after the wounding, the homing experiment was performed. The animal use was accepted by the National Animal Ethics Committee of Finland on 12 September 2017 (ESAVI/6422/04.10.07/2017) and on 4 January 2022 (ESAVI/39175/2021).
BALB/cJRj and diabetic male BKS(D)-Lepr^db/JOrlRj mice with 7-d-old skin wounds were used for the peptide homing experiment. FAM-labeled peptides were dissolved in the PBS just before the experiment. 5 mg/kg (BALB/cJRj) or 1,5 mg/kg (BKS(D)-Lepr^db/JOrlRj) of each peptide (CAR, CDD, CPK, CYH, and a control peptide) in PBS or plain PBS (control) was injected on the tail vein under sevoflurane anesthesia. […]

Row | Sequence | cellular uptake in CHO-K cells (CHO-K cells) | accumulation in skin wounds relative to a control (skin wounds; mouse day 7 wound, 5 mg/kg tail vein, 150 min circulation, anti-FAM positive area, N = 3) [fold] | localisation in skin wound (skin wounds; mouse day 7 wound) | accumulation in normal organs (skin wounds)
1 | CDDYQQISC [FAM-labeled synthetic peptide …] | accumulate in the CHO-K cells | 12 | accumulated in wound regions containing blood vessels and in surrounding extravascular granulation tissue | do not accumulate in normal, healthy organs except in the kidneys
2 | CPKKHHLDC [FAM-labeled synthetic peptide …] | accumulate in the CHO-K cells |  | accumulated in wound regions containing blood vessels and in surrounding extravascular granulation tissue | do not accumulate in normal, healthy organs except in the kidneys
3 | CYHDTYPNC [FAM-labeled synthetic peptide …] | accumulate in the CHO-K cells |  | accumulated in wound regions containing blood vessels and in surrounding extravascular granulation tissue | do not accumulate in normal, healthy organs except in the kidneys
